Results published in patent publication US20230304058A1, “NOVEL 5'CAP ANALOG HAVING CAP2 STRUCTURE AND PREPARATION METHOD THEREFOR” (Shenzhen Rhegen Biotechnology Co., Ltd., priority 2020, published 2023).

Tests used:
[1] = molecular target: T7 Enzyme Mix (Escherichia phage T7, UniProt P00573); assay: In vitro transcription mRNA synthesis with cap analog, reaction yield; assay type: biochemical; conditions: per ml transcription reaction system; 37° C. for 6 h; LiCl purification
Method: 1. Before synthesizing mRNA, linearize the plasmid with Notl, digested at […] overnight;
2. Extract with DNA template;
React at 37° C. for 6 h. Digest with TURBO DNase for 15 min.
4. Purify the transcription products using LiCl solution and calculate the reaction yields.

[2] = system: mRNA; assay: mRNA capping rate by RNase H cleavage and LC-MS; assay type: biochemical; conditions: ratio of capped and uncapped mRNA
Source text: The mRNA molecules with different Cap structures obtained in Example 1 were subjected to enzymatic cleavage, and the ratio of capped and uncapped mRNA molecules could be determined in a liquid chromatography-mass spectrometry analysis experiment.
1. Concentrate the beads using a magnet, aspirate the supernatant storage solution, and add an equal volume of 0.1 M NaOH +0.05 M NaCl;
2. Aspirate the supernatant and resuspend the beads with an equal volume of 0.1 M NaCl, keep the concentration constant;
3. Anneal mRNA and cleavage tags, configure the following reaction system;
Gradient annealing: 95° C. 5 min
4. Combining cleavage tags with beads • Beads were centrifuged at 15,000 g for 5 min, and the supernatant was removed, then 120 μl of annealed mRNA and tags were added and incubated for 30 min at room temperature, during which time they were gently shaken to ensure adequate binding.
5. Enzyme cleavage using RNase H; • Add 10 μl RNase H and incubate at 37° C. for 3 h. Precipitate the beads with magnet and discard the supernatant. • Add 100 μl washing buffer, mix thoroughly, magnet precipitate for 2 min, and discard the supernatant. Repeat 3 times. • Wash with DI water for 3 times.
6. Hydrolysis with RppH; • Use 10 units RppH in nebuffer 2 to hydrolyze at room temperature for 1 h.
DI water was aspirated, 100 μl of 75% ethanol preheated to 80° C. was added, incubat for 3 min, and magnet precipitat for 3 min. The supernatant was taken, followed by evaporating, and centrifuge for 45 min to a volume of 10 μl. Finally, the sample was resuspended in 50 μl of […] EDTA/1% MeOH and left for LC-MS analysis.
9. the mRNA capping rate of different Cap analogs synthesized was analyzed with LC-MS.

[3] = system: TLR3, TLR7, TLR8 and RIG-1; assay: Intracellular immunogenicity of capped mRNA by RNA immunoprecipitation and quantitative PCR; assay type: cell-based; conditions: relative to ARCA; Human-derived PBMC cells, 5 μg mRNA, Lipofectamine 2000, 24 h
Method: Experimental methods: the intracellular immunoproteins TLR3, TLR7, TLR8 and RIG-1 were immunoprecipitated together with their bound RNAs by RNA immunoprecipitation, and finally these mRNAs were identified by real-time quantitative PCR, and their relative abundance was proportional to their immunogenicity.
The cells were collected by trypsin digestion 24 h later and resuspended in PBS, centrifuged, and collected.
Fixative was added to the cells, and after 15 minutes glycine was added for termination of fixation, followed by centrifugation to collect the cells. Cells were resuspended by adding lysate, incubated on ice at 4° C. for 30 min, centrifuged at 2400 g for 10 min, and the supernatant was collected.
TLR3, TLR7, TLR8 and RIG-1 antibodies (2-10 μg) were added to the supernatant (6-10 mg) followed by gentle incubation at 4° C. for 2 hours. Protein AIG beads (40 μL) were then added to them and incubated gently for 1 h at 4° C.
Centrifuge at 2500 rpm for 30 seconds with precipitated magnetic beads and remove the supernatant. Resuspend the beads in 500 μL of RIP buffer. Wash in RIP buffer a total of three times, followed by one wash in PBS.
Resuspend magnetic beads in TRIzol RNA Extraction Reagent (1 mL) and isolate co-precipitated RNA, and then elute RNA using nuclease-free water (20 μL).
6. Reverse transcribe (RT) the RNA into cDNA and design primers according to the mRNA sequence for quantitative PCR analysis. mRNA immunogenicity is proportional to the number of mRNA copies precipitated by magnetic beads.

Chain of T7 Enzyme Mix (P00573 whole entry): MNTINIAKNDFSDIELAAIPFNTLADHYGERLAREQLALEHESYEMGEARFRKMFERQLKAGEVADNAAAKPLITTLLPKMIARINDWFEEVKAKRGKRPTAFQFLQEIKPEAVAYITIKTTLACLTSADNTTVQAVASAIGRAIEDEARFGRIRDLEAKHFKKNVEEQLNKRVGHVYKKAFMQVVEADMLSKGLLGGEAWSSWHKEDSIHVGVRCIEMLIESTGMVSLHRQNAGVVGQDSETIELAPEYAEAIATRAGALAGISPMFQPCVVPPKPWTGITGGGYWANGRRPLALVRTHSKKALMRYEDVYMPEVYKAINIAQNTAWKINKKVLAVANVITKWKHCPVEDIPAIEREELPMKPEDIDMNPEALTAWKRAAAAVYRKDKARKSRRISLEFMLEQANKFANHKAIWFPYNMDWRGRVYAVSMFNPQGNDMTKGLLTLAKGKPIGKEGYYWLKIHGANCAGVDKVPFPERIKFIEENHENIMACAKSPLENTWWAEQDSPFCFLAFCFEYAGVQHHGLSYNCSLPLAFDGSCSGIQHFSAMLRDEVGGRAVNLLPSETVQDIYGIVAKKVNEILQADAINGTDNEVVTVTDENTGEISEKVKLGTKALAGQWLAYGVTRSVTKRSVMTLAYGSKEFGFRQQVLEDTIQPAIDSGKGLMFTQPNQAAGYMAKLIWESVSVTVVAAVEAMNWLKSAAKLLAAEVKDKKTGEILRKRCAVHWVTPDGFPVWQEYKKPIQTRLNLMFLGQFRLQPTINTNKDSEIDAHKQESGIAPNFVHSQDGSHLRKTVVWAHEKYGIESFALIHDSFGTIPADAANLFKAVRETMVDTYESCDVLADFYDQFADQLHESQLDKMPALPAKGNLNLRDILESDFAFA

CO[C@@H]1[C@H](O)[C@@H](COP(=O)(O)O[C@H]2[C@@H](OC)[C@H](n3cnc4c(N)ncnc43)O[C@@H]2COP(=O)(O)OP(=O)(O)OP(=O)([O-])OC[C@H]2O[C@@H](n3c[n+](C)c4c(=O)[nH]c(N)nc43)[C@H](O)[C@@H]2O)O[C@H]1n1cnc2c(=O)[nH]c(N)nc21 [Cap analog 1, m7G(5′)ppp(5′)(2′OMeA)p(2′OMeG)]
Mass of final product obtained from 1 ml mRNA synthesis reaction system [1]: 4.5 mg
mRNA capping rates when using different Cap structures [2]: 94.91%
Intracellular immunogenicity of mRNA when using different Cap structures [3]: 0.40

CO[C@@H]1[C@H](O)[C@@H](COP(=O)(O)O[C@H]2[C@@H](OC)[C@H](n3cnc4c(=O)[nH]c(N)nc43)O[C@@H]2COP(=O)(O)OP(=O)(O)OP(=O)([O-])OC[C@H]2O[C@@H](n3c[n+](C)c4c(=O)[nH]c(N)nc43)[C@H](O)[C@@H]2O)O[C@H]1n1cnc2c(=O)[nH]c(N)nc21 [Cap analog 2, m7G(5′)ppp(5′)(2′OMeG)p(2′OMeG)]
Mass of final product obtained from 1 ml mRNA synthesis reaction system [1]: 4.9 mg
mRNA capping rates when using different Cap structures [2]: 95.1%
Intracellular immunogenicity of mRNA when using different Cap structures [3]: 0.37

CO[C@@H]1[C@H](OP(=O)(O)OC[C@H]2O[C@@H](n3cnc4c(=O)[nH]c(N)nc43)[C@H](OC)[C@@H]2O)[C@@H](COP(=O)(O)OP(=O)(O)OP(=O)([O-])OC[C@H]2O[C@@H](n3c[n+](C)c4c(=O)[nH]c(N)nc43)[C@H](O)[C@@H]2O)O[C@H]1n1ccc(N)nc1=O [Cap analog 3, m7G(5′)ppp(5′)(2′OMeC)p(2′OMeG)]
Mass of final product obtained from 1 ml mRNA synthesis reaction system [1]: 5.8 mg
mRNA capping rates when using different Cap structures [2]: 94.82%
Intracellular immunogenicity of mRNA when using different Cap structures [3]: 0.28

CO[C@@H]1[C@H](OP(=O)(O)OC[C@H]2O[C@@H](n3cnc4c(=O)[nH]c(N)nc43)[C@H](OC)[C@@H]2O)[C@@H](COP(=O)(O)OP(=O)(O)OP(=O)([O-])OC[C@H]2O[C@@H](n3c[n+](C)c4c(=O)[nH]c(N)nc43)[C@H](O)[C@@H]2O)O[C@H]1n1ccc(=O)[nH]c1=O [Cap analog 4, m7G(5′)ppp(5′)(2′OMeU)p(2′OMeG)]
Mass of final product obtained from 1 ml mRNA synthesis reaction system [1]: 4.7 mg
mRNA capping rates when using different Cap structures [2]: 94.72%
Intracellular immunogenicity of mRNA when using different Cap structures [3]: 0.48

CO[C@@H]1[C@H](O)[C@@H](COP(=O)(O)O[C@H]2[C@@H](OC)[C@H](n3cnc4c(N)ncnc43)O[C@@H]2COP(=O)(O)OP(=O)(O)OP(=O)([O-])OC[C@H]2O[C@@H](n3c[n+](C)c4c(=O)[nH]c(N)nc43)[C@H](O)[C@@H]2O)O[C@H]1n1cnc2c(N)ncnc21 [Cap analog 5, m7G(5′)ppp(5′)(2′OMeA)p(2′OMeA)]
Mass of final product obtained from 1 ml mRNA synthesis reaction system [1]: 4.4 mg
mRNA capping rates when using different Cap structures [2]: 94.88%
Intracellular immunogenicity of mRNA when using different Cap structures [3]: 0.52

CO[C@@H]1[C@H](O)[C@@H](COP(=O)(O)O[C@H]2[C@@H](OC)[C@H](n3cnc4c(=O)[nH]c(N)nc43)O[C@@H]2COP(=O)(O)OP(=O)(O)OP(=O)([O-])OC[C@H]2O[C@@H](n3c[n+](C)c4c(=O)[nH]c(N)nc43)[C@H](O)[C@@H]2O)O[C@H]1n1cnc2c(N)ncnc21 [Cap analog 6, m7G(5′)ppp(5′)(2′OMeG)p(2′OMeA)]
Mass of final product obtained from 1 ml mRNA synthesis reaction system [1]: 5.1 mg
mRNA capping rates when using different Cap structures [2]: 94.65%
Intracellular immunogenicity of mRNA when using different Cap structures [3]: 0.38

CO[C@@H]1[C@H](OP(=O)(O)OC[C@H]2O[C@@H](n3cnc4c(N)ncnc43)[C@H](OC)[C@@H]2O)[C@@H](COP(=O)(O)OP(=O)(O)OP(=O)([O-])OC[C@H]2O[C@@H](n3c[n+](C)c4c(=O)[nH]c(N)nc43)[C@H](O)[C@@H]2O)O[C@H]1n1ccc(N)nc1=O [Cap analog 7, m7G(5′)ppp(5′)(2′OMeC)p(2′OMeA)]
Mass of final product obtained from 1 ml mRNA synthesis reaction system [1]: 5.3 mg
mRNA capping rates when using different Cap structures [2]: 94.76%
Intracellular immunogenicity of mRNA when using different Cap structures [3]: 0.24

CO[C@@H]1[C@H](OP(=O)(O)OC[C@H]2O[C@@H](n3cnc4c(N)ncnc43)[C@H](OC)[C@@H]2O)[C@@H](COP(=O)(O)OP(=O)(O)OP(=O)([O-])OC[C@H]2O[C@@H](n3c[n+](C)c4c(=O)[nH]c(N)nc43)[C@H](O)[C@@H]2O)O[C@H]1n1ccc(=O)[nH]c1=O [Cap analog 8, m7G(5′)ppp(5′)(2′OMeU)p(2′OMeA)]
Mass of final product obtained from 1 ml mRNA synthesis reaction system [1]: 5.3 mg
mRNA capping rates when using different Cap structures [2]: 94.79%
Intracellular immunogenicity of mRNA when using different Cap structures [3]: 0.31

CO[C@@H]1[C@H](O)[C@@H](COP(=O)(O)O[C@H]2[C@@H](OC)[C@H](n3cnc4c(N)ncnc43)O[C@@H]2COP(=O)(O)OP(=O)(O)OP(=O)([O-])OC[C@H]2O[C@@H](n3c[n+](C)c4c(=O)[nH]c(N)nc43)[C@H](O)[C@@H]2O)O[C@H]1n1ccc(N)nc1=O [Cap analog 9, m7G(5′)ppp(5′)(2′OMeA)p(2′OMeC)]
Mass of final product obtained from 1 ml mRNA synthesis reaction system [1]: 4.8 mg
mRNA capping rates when using different Cap structures [2]: 94.73%
Intracellular immunogenicity of mRNA when using different Cap structures [3]: 0.4

CO[C@@H]1[C@H](O)[C@@H](COP(=O)(O)O[C@H]2[C@@H](OC)[C@H](n3cnc4c(=O)[nH]c(N)nc43)O[C@@H]2COP(=O)(O)OP(=O)(O)OP(=O)([O-])OC[C@H]2O[C@@H](n3c[n+](C)c4c(=O)[nH]c(N)nc43)[C@H](O)[C@@H]2O)O[C@H]1n1ccc(N)nc1=O [Cap analog 10, m7G(5′)ppp(5′)(2′OMeG)p(2′OMeC)]
Mass of final product obtained from 1 ml mRNA synthesis reaction system [1]: 6.0 mg
mRNA capping rates when using different Cap structures [2]: 94.93%
Intracellular immunogenicity of mRNA when using different Cap structures [3]: 0.18

CO[C@@H]1[C@H](O)[C@@H](COP(=O)(O)O[C@H]2[C@@H](OC)[C@H](n3ccc(N)nc3=O)O[C@@H]2COP(=O)(O)OP(=O)(O)OP(=O)([O-])OC[C@H]2O[C@@H](n3c[n+](C)c4c(=O)[nH]c(N)nc43)[C@H](O)[C@@H]2O)O[C@H]1n1ccc(N)nc1=O [Cap analog 11, m7G(5′)ppp(5′)(2′OMeC)p(2′OMeC)]
Mass of final product obtained from 1 ml mRNA synthesis reaction system [1]: 4.7 mg
mRNA capping rates when using different Cap structures [2]: 95.2%
Intracellular immunogenicity of mRNA when using different Cap structures [3]: 0.31

CO[C@@H]1[C@H](O)[C@@H](COP(=O)(O)O[C@H]2[C@@H](OC)[C@H](n3ccc(=O)[nH]c3=O)O[C@@H]2COP(=O)(O)OP(=O)(O)OP(=O)([O-])OC[C@H]2O[C@@H](n3c[n+](C)c4c(=O)[nH]c(N)nc43)[C@H](O)[C@@H]2O)O[C@H]1n1ccc(N)nc1=O [Cap analog 12, m7G(5′)ppp(5′)(2′OMeU)p(2′OMeC)]
Mass of final product obtained from 1 ml mRNA synthesis reaction system [1]: 4.9 mg
mRNA capping rates when using different Cap structures [2]: 94.86%
Intracellular immunogenicity of mRNA when using different Cap structures [3]: 0.19

CO[C@@H]1[C@H](O)[C@@H](COP(=O)(O)O[C@H]2[C@@H](OC)[C@H](n3cnc4c(N)ncnc43)O[C@@H]2COP(=O)(O)OP(=O)(O)OP(=O)([O-])OC[C@H]2O[C@@H](n3c[n+](C)c4c(=O)[nH]c(N)nc43)[C@H](O)[C@@H]2O)O[C@H]1n1ccc(=O)[nH]c1=O [Cap analog 13, m7G(5′)ppp(5′)(2′OMeA)p(2′OMeU)]
Mass of final product obtained from 1 ml mRNA synthesis reaction system [1]: 5.1 mg
mRNA capping rates when using different Cap structures [2]: 94.77%
Intracellular immunogenicity of mRNA when using different Cap structures [3]: 0.23
